# Earlier results as cited in patent US20200276216A1, “INHIBITION OF GLYCOLYSIS WITH 2-DEOXY-D-GLUCOSE AND D-LACTIC ACID DIMER” (priority 2020, published 2020).
# Experiments:
# [1] = in vivo, po
# [2] = in vivo
# [3] = system: cancer cells; details: dose dependent, exclusive of its ability to lower pH
SMILES,half-life [1] [h],estimated maximum approximate dose before side effects become clinically significant [2] [mg/kg/day],selectivity of action in vitro [3]
"O=CC[C@@H](O)[C@H](O)[C@H](O)CO [2DG, 2-Dexoxy-D-Glucose]",4.5 to 8.2,~60,
"C[C@@H](O)C(=O)O[C@H](C)C(=O)O [DLAD, D-Lactic Acid Dimer]",,,selective for cancer cells
